Results as given in patent US10131679B2, “Substituted dihydropyrrolopyrazole compound” (UBE INDUSTRIES, LTD., priority 2014, dated 2018).

What was measured:
Type in all cases: cell-based
[1] = tested on: human breast cancer cell line (MCF-7); assay: Human breast cancer (MCF-7) cell growth inhibition test; settings: MCF7, 72 h, MCF-7, culture for 3 days, sulforhodamine B absorbance
Description: Human Breast Cancer (MCF-7) Cell Growth Inhibition Test
The measurement of a human breast cancer cell growth inhibitory effect was carried out by modifying the method of Simak et al. (Cancer Research, 69, 6208 (2009)).
A human breast cancer cell line (MCF-7) manufactured by DS Pharma Biomedical Co., Ltd., Cat. No. EC86012803, was cultured in MEM (manufactured by GIBCO/Thermo Fisher Scientific, Inc., REF. 11095-080) medium containing 10% FBS (manufactured by GIBCO/Thermo Fisher Scientific, Inc., REF. 10082-147), nonessential amino acids (manufactured by GIBCO/Thermo Fisher Scientific, Inc., REF. 11140-050), and 1% penicillin/streptomycin/amphotericin B (manufactured by GIBCO/Thermo Fisher Scientific, Inc., REF. 15240-096) and inoculated at 3.0×10^3 cells/well to a 96-well plate (manufactured by Corning Inc., REF. 353072). After overnight culture in a carbon dioxide incubator, it was replaced with a fresh MEM medium containing 10% FBS, nonessential amino acids, and 1% penicillin/streptomycin/amphotericin B on the next day, and a test compound dissolved in DMSO (manufactured by Wako Pure Chemical Industries, Ltd., Code No. 043-07216) (final DMSO concentration: 0.1%) was added and left standing in a carbon dioxide incubator. After culture for 3 days, the absorbance of each well was measured by using In Vitro Toxicology Assay Kit Sulforhodamine B based (manufactured by Sigma-Aldrich Co. LLC., Pcode 1001910706).
(§1) The rate of inhibition of cell growth at each concentration was calculated from the test compound concentration and the absorbance of sulforhodamine B, and the concentration of the test compound necessary for inhibiting 50% of cell growth (IC50 value) was calculated by using EXSUS (version 8.0.0 or version 8.0.1, manufactured by CAC Exicare Corp.).

[2] = tested on: Human keratinocytes (NHEK-Neo Pooled); assay: Human keratinocyte growth inhibition assay; settings: 48 h, culture for 2 days, Cell Counting Kit-8
Description: Human Keratinocyte Growth Inhibition Assay
The measurement of a human keratinocyte growth inhibitory effect was carried out by modifying the method of Schafer et al. (British Journal of Pharmacology, 159, 842 (2011)).
Human keratinocytes (NHEK-Neo Pooled, manufactured by Lonza Group AG, Cat. No. 00192906) were cultured in KGM-Gold Bullet Kit (manufactured by Lonza Group AG, Cat. No. 00192060) and inoculated at 2.0×10^3 cells/well to a 96-well plate. After overnight culture in a carbon dioxide incubator, a test compound dissolved in DMSO (final DMSO concentration: 0.1%) was added and left standing in a carbon dioxide incubator. After culture for 2 days, the absorbance thereof was measured by using Cell Counting Kit-8 (343-07623 manufactured by Dojindo Laboratories)).
as §1, with “Cell Counting Kit-8,” for “sulforhodamine B,”

[3] = tested on: IL-17 production in human PBMC-derived T cells; assay: Human PBMC various-stimulant cocktail-induced IL-17 production inhibition test; settings: 120 h; human T-cell suspension from PBMC, cocktail of various stimulants, incubation for 5 days, ELISA
From the text: Human PBMC Various-Stimulant Cocktail-Induced IL-17 Production Inhibition Test
PBMC was separated and collected by using Ficoll-Paque (17-1440-02 manufactured by GE Healthcare Japan Corp.) from blood collected from healthy human adult in the presence of heparin. The collected PBMC was further cultured in a flask for a certain time, and then, non-adherent cells in the supernatant were collected and used as a T-cell suspension. RPMI1640 medium (manufactured by GIBCO/Thermo Fisher Scientific, Inc., REF. 11875), which is containing 10% FBS (manufactured by GIBCO/Thermo Fisher Scientific, Inc., REF. 10082), 1% penicillin/streptomycin/amphotericin B (manufactured by GIBCO/Thermo Fisher Scientific, Inc., REF. 15240-096), 1% nonessential amino acids (manufactured by GIBCO/Thermo Fisher Scientific, Inc., REF. 11140-050), and 1% pyruvic acid (manufactured by GIBCO/Thermo Fisher Scientific, Inc., REF. 11140) and containing a test compound dissolved in DMSO, 2 μg/mL (final concentration) CD28 antibody (manufactured by BioLegend, Inc., Cat. No. 302914), 10 μg/mL (final concentration) human IFN-γ antibody (manufactured by BD Biosciences, Cat. No. 554698), 10 μg/mL (final concentration) human IL-4 antibody (manufactured by BD Biosciences, Cat. No. 554481), 20 ng/mL (final concentration) human IL-6 (manufactured by BioLegend, Inc., Cat. No. 570802), 10 ng/mL (final concentration) human IL-23 (manufactured by BioLegend, Inc., Cat. No. 574102), 10 ng/mL (final concentration) human IL-1(3 (manufactured by PeproTech Inc., Cat. No. 200-01B), and 10 ng/mL (final concentration) human TGF-13 (manufactured by BioLegend, Inc., Cat. No. 580702), was added at 100 μL/well to T cell Activation Plate Anti-Human CD3 96-well plate (manufactured by Corning Inc., REF. 354725). Subsequently, 100 μL of a T-cell suspension adjusted to 2×10^5 cells/mL was added to each well (final DMSO concentration: 0.1%). Only DMSO was added to wells in the absence of the test compound. After incubation for 5 days in a carbon dioxide incubator, the culture supernatant was collected and stored at −20° C. until IL-17 content measurement.
In the IL-17 content measurement in the culture supernatant, a sandwich ELISA kit (Quantikine Human IL-17, manufactured by R&D Systems, Inc.) was used. The IL-17 content of each sample was calculated from the calibration curve of Standard IL-17 included in the kit. When the amount of IL-17 produced by the cocktail of various stimulants in the case of the addition of only DMSO was defined as 100%, the rate of inhibition of IL-17 production at each concentration of the test compound was calculated. The concentration of the test compound necessary for inhibiting 50% of IL-17 production (IC50 value) was calculated from the concentration of the added test compound and the rate of inhibition of IL-17 production by the test compound by using EXSUS (version 8.0.0 or version 8.0.1, manufactured by CAC Exicare Corp.).

Compound | IC50 [1] [µM] | IC50 [2] [µM] | IC50 [3] [µM]
CC1(C)c2[nH]nc(NC(=O)C3([Si](C)(C)C)CCC3)c2CN1C(=O)N[C@H](CO)c1ccccc1 [IV-114, (S)—N-(2-Hydroxy-1-phenylethyl)-6,6-dimethyl-3-[1-(trimethylsilyl)cyclobutanecarboxamido]-4,6-dihydropyrrolo[3,4-c]pyrazole-5(1H)-carboxamide] | ≤ 0.5 | – | –
COC[C@@H](NC(=O)N1Cc2c(NC(=O)C3([Si](C)(C)C)CCC3)n[nH]c2C1(C)C)c1ccccc1 [IV-123, (S)—N-(2-Methoxy-1-phenylethyl)-6,6-dimethyl-3-[1-(trimethylsilyl)cyclobutanecarboxamido]-4,6-dihydropyrrolo[3,4-c]pyrazole-5(1H)-carboxamide] | ≤ 0.5 | ≤ 0.5 | –
CC(C)(O)[C@@H](NC(=O)N1Cc2c(NC(=O)C3([Si](C)(C)C)CCC3)n[nH]c2C1(C)C)c1ccccc1 [IV-171, (S)—N-(2-Hydroxy-2-methyl-1-phenylpropyl)-6,6-dimethyl-3-[1-(trimethylsilyl)cyclobutanecarboxamido]-4,6-dihydropyrrolo[3,4-c]pyrazole-5(1H)-carboxamide] | ≤ 0.5 | ≤ 0.5 | –
CC(C)[C@@H](CO)NC(=O)N1Cc2c(NC(=O)C3([Si](C)(C)C)CCC3)n[nH]c2C1(C)C [IV-475, (S)—N-(1-Hydroxy-3-methylbutan-2-yl)-6,6-dimethyl-3-[1-(trimethylsilyl)cyclobutanecarboxamido]-4,6-dihydropyrrolo[3,4-c]pyrazole-5(1H)-carboxamide] | ≤ 0.5 | – | –
CC[Si](C)(C)C1(C(=O)Nc2n[nH]c3c2CN(C(=O)[C@H](OC)c2ccccc2)C3(C)C)CCC1 [IV-1178, (R)-1-(Ethyldimethylsilyl)-N-[5-(2-methoxy-2-phenylacetyl)-6,6-dimethyl-1,4,5,6-tetrahydropyrrolo[3,4-c]pyrazol-3-yl] cyclobutanecarboxamide] | – | ≤ 0.5 | ≤ 0.05
CC1(C)c2[nH]nc(NC(=O)C3([Si](C)(C)C)CCC3)c2CN1C(=O)[C@H](OC(F)F)c1ccccc1 [IV-1180, (R)—N-{5-[2-(Difluoromethoxy)-2-phenylacetyl]-6,6-dimethyl-1,4,5,6-tetrahydropyrrolo[3,4-c]pyrazol-3-yl}-1-(trimethylsilyl)cyclobutanecarboxamide] | – | ≤ 0.5 | ≤ 0.05
CCO[C@@H](C(=O)N1Cc2c(NC(=O)C3([Si](C)(C)C)CCC3)n[nH]c2C1(C)C)c1ccccc1 [IV-1188, (R)—N-[5-(2-Ethoxy-2-phenylacetyl)-6,6-dimethyl-1,4,5,6-tetrahydropyrrolo[3,4-c]pyrazol-3-yl]-1-(trimethylsilyl)cyclobutanecarboxamide] | – | ≤ 0.5 | ≤ 0.05

More lines, main results first:

IC50 [1] [µM] | Compound | IC50 [2] [µM] | IC50 [3] [µM]
≤ 0.5 | CC[Si](C)(C)C1(C(=O)Nc2n[nH]c3c2CN(C(=O)N[C@H](CO)c2ccccc2)C3(C)C)CCC1 [IV-117, (S)-3-[1-(Ethyldimethylsilyl)cyclobutanecarboxamido]-N-(2-hydroxy-1-phenylethyl)-6,6-dimethyl-4,6-dihydropyrrolo[3,4-c]pyrazole-5(1H)-carboxamide] | – | –
≤ 0.5 | CC1(C)c2[nH]nc(NC(=O)C3([Si](C)(C)C)CCC3)c2CN1C(=O)N[C@H](CCO)c1ccccc1 [IV-227, (R)—N-(3-Hydroxy-1-phenylpropyl)-6,6-dimethyl-3-[1-(trimethylsilyl)cyclobutanecarboxamido]-4,6-dihydropyrrolo[3,4-c]pyrazole-5(1H)-carboxamide] | ≤ 0.5 | –
≤ 0.5 | CC1(C)c2[nH]nc(NC(=O)C3([Si](C)(C)C)CCC3)c2CN1C(=O)N[C@H](CCCCO)c1ccccc1 [IV-291, (R)—N-(5-Hydroxy-1-phenylpentyl)-6,6-dimethyl-3-[1-(trimethylsilyl)cyclobutanecarboxamido]-4,6-dihydropyrrolo[3,4-c]pyrazole-5(1H)-carboxamide] | – | –
≤ 0.5 | CC1(C)c2[nH]nc(NC(=O)C3([Si](C)(C)C)CCC3)c2CN1C(=O)NCCO [IV-438, N-(2-Hydroxyethyl)-6,6-dimethyl-3-[1-(trimethylsilyl)cyclobutanecarboxamido]-4,6-dihydropyrrolo[3,4-c]pyrazole-5(1H)-carboxamide] | – | –
≤ 0.5 | C[C@@H](CO)NC(=O)N1Cc2c(NC(=O)C3([Si](C)(C)C)CCC3)n[nH]c2C1(C)C [IV-455, (S)—N-(1-Hydroxypropan-2-yl)-6,6-dimethyl-3-[1-(trimethylsilyl)cyclobutanecarboxamido]-4,6-dihydropyrrolo[3,4-c]pyrazole-5(1H)-carboxamide] | – | –
≤ 0.5 | CC1(C)c2[nH]nc(NC(=O)C3([Si](C)(C)C)CCC3)c2CN1C(=O)N[C@H](CO)C1CCCCC1 [IV-495, (S)—N-(1-Cyclohexyl-2-hydroxyethyl)-6,6-dimethyl-3-[1-(trimethylsilyl)cyclobutanecarboxamido]-4,6-dihydropyrrolo[3,4-c]pyrazole-5(1H)-carboxamide] | – | –
